# Calls of active or inactive are those of the source. The calls are words filed in the database; no cut-off is given here.
# What was measured:
# Staphylococcus aureus [1] = assay: Antimicrobial activity against methicillin-resistant Staphylococcus aureus USA300 after 20 hrs by two-fold broth dilution assay; type: functional; details: USA300, 20 h
# Escherichia coli [2] = assay: Binding affinity to Escherichia coli MRE600 23S rRNA assessed as protection of A2059 at 25 uM by footprinting assay relative to control in presence of DMS
# Staphylococcus aureus [3] = assay: Antimicrobial activity against […] Staphylococcus aureus RN4220 after 20 hrs by two-fold broth dilution assay; type: functional; details: RN4220, 20 h
# Escherichia coli [4] = assay: Binding affinity to Escherichia coli MRE600 23S rRNA assessed as protection of A2062 at 25 uM by footprinting assay relative to control in presence of DMS
# Escherichia coli [5] = assay: Antimicrobial activity against […] Escherichia coli AS19 after 20 hrs by two-fold broth dilution assay; type: functional; details: AS19, 20 h
# Escherichia coli [6] = assay: Binding affinity to Escherichia coli MRE600 23S rRNA assessed as protection of U2585 at 5 uM by footprinting assay relative to control in presence of CMCT
# Escherichia coli [7] = assay: Binding affinity to Escherichia coli MRE600 23S rRNA assessed as protection of U2506 at 5 uM by footprinting assay relative to control in presence of CMCT
# Escherichia coli [8] = assay: Binding affinity to Escherichia coli MRE600 23S rRNA assessed as protection of U2585 at 50 uM by footprinting assay relative to control in presence of CMCT
# Escherichia coli [9] = assay: Binding affinity to Escherichia coli MRE600 23S rRNA assessed as protection of U2506 at 50 uM by footprinting assay relative to control in presence of CMCT
SMILES,MIC (Staphylococcus aureus [1]),Activity (Escherichia coli [2]),MIC (Staphylococcus aureus [3]),Activity (Escherichia coli [4]),MIC (Escherichia coli [5]),Activity (Escherichia coli [6]),Activity (Escherichia coli [7]),Activity (Escherichia coli [8]),Activity (Escherichia coli [9])
C=C[C@]1(C)C[C@@H](OC(=O)Cn2cc(-c3ccc(-n4cnc5c(N)ncnc54)cc3)nn2)[C@]2(C)[C@H](C)CC[C@]3(CCC(=O)[C@H]32)[C@@H](C)[C@@H]1O,0.5 µg/mL,inactive,0.5 µg/mL,inactive,4 µg/mL,–,–,–,–
C=C[C@]1(C)C[C@@H](OC(=O)Cn2cc(CCCn3cnc4c(N)ncnc43)nn2)[C@]2(C)[C@H](C)CC[C@]3(CCC(=O)[C@H]32)[C@@H](C)[C@@H]1O,2 µg/mL,–,2 µg/mL,–,2 µg/mL,–,–,–,–
C=C[C@]1(C)C[C@@H](OC(=O)Cn2cc(CN(CC)CC)nn2)[C@]2(C)[C@H](C)CC[C@]3(CCC(=O)[C@H]32)[C@@H](C)[C@@H]1O,> 4 µg/mL,–,> 4 µg/mL,–,≥ 4 µg/mL,51%,27%,28%,8%
C=C[C@]1(C)C[C@@H](OC(=O)CO)[C@]2(C)[C@H](C)CC[C@]3(CCC(=O)[C@@H]32)[C@@H](C)[C@@H]1O,–,–,–,–,–,73%,15%,59%,5%
C=C[C@]1(C)C[C@@H](OC(=O)Cn2cc(-c3cccc(-n4cnc5c(N)ncnc54)c3)nn2)[C@]2(C)[C@H](C)CC[C@]3(CCC(=O)[C@H]32)[C@@H](C)[C@@H]1O,0.06 µg/mL,–,0.06 µg/mL,–,0.5 µg/mL,–,–,–,–
C=C[C@]1(C)C[C@@H](OC(=O)CSCCN(CC)CC)[C@]2(C)[C@H](C)CC[C@]3(CCC(=O)[C@H]32)[C@@H](C)[C@@H]1O [TIAMULIN],1 µg/mL,–,0.5 µg/mL,–,0.25 µg/mL,41%,5%,40%,3%
C=C[C@]1(C)C[C@@H](OC(=O)Cn2cc(COCCn3cnc4c(N)ncnc43)nn2)[C@]2(C)[C@H](C)CC[C@]3(CCC(=O)[C@H]32)[C@@H](C)[C@@H]1O,> 4 µg/mL,–,> 4 µg/mL,–,> 4 µg/mL,27%,9%,14%,4%
C=C[C@]1(C)C[C@@H](OC(=O)CSC(C)(C)CNC(=O)[C@H](N)C(C)C)[C@]2(C)[C@H](C)CC[C@]3(CCC(=O)[C@H]32)[C@@H](C)[C@@H]1O [VALNEMULIN],0.06 µg/mL,–,0.03 µg/mL,–,0.03 µg/mL,10%,2%,12%,2%
C=C[C@]1(C)C[C@@H](OC(=O)Cn2nncc2CCCn2cnc3c(N)ncnc32)[C@]2(C)[C@H](C)CC[C@]3(CCC(=O)[C@H]32)[C@@H](C)[C@@H]1O,> 4 µg/mL,inactive,4 µg/mL,–,4 µg/mL,–,–,–,–
C=C[C@]1(C)C[C@@H](OC(=O)Cn2cc(/C=C/Cn3cnc4c(N)ncnc43)nn2)[C@]2(C)[C@H](C)CC[C@]3(CCC(=O)[C@H]32)[C@@H](C)[C@@H]1O,1 µg/mL,–,1 µg/mL,–,2 µg/mL,–,–,–,–

# Source: ChEMBL document CHEMBL3112534, “A click chemistry approach to pleuromutilin derivatives. Part 3: extended footprinting analysis and excellent MRSA inhibition for a derivative with an adenine phenyl side chain” (2014)
